From ChEMBL document CHEMBL3286094, “Synthesis and biological evaluation of novel bisbenzimidazoles as Escherichia coli topoisomerase IA inhibitors and potential antibacterial agents” (J Med Chem, 2014)
Converted amounts (≈) assume the structure as drawn.

Key:
Escherichia coli [1] = assay: Antibacterial activity against multidrug-resistant Escherichia coli IS 54 isolated from water source assessed as growth inhibition after 18 to 24 hrs by broth microdilution method; details: IS 54, Water
Escherichia coli [2] = assay: Antibacterial activity against ampicillin/ciprofloxacin/gentamicin/tetracycline-resistant Escherichia coli 555 assessed as growth inhibition after 18 to 24 hrs by broth microdilution method; format: functional
Escherichia coli [3] = assay: Antibacterial activity against cefazolinl/ampicillin/piperacillin/cefuroxime/cefepime/cefotaxime/tetracycline/trimethoprim-resistant Escherichia coli KK16 isolated from water source assessed as growth inhibition after 18 to 24 hrs by broth microdilution method
Escherichia coli [4] = assay: Antibacterial activity against ampicillin/kanamycin/trimethoprim/tetracyclin/ciprofloxacin/nalidixic acid-resistant Escherichia coli 81 assessed as growth inhibition after 18 to 24 hrs by broth microdilution method; format: functional
Escherichia coli [5] = assay: Bactericidal activity against Escherichia coli DH5[alpha] by agar plating method; format: functional
Escherichia coli [6] = assay: Bactericidal activity against ampicillin/tetracycline-resistant Escherichia coli IP18 isolated from water source by agar plating method
Escherichia coli [7] = assay: Bactericidal activity against Escherichia coli ATCC 25922 by agar plating method; format: functional
Escherichia coli [8] = assay: Antibacterial activity against chloramphenicol/ampicillin/trimethoprim/ciprofloxacin/nalidixic acid-resistant Escherichia coli 59 assessed as growth inhibition after 18 to 24 hrs by broth microdilution method; format: functional
Escherichia coli [9] = assay: Antibacterial activity against tetracycline/trimethoprim-resistant Escherichia coli IST isolated from water source assessed as growth inhibition after 18 to 24 hrs by broth microdilution method
Escherichia coli [10] = assay: Bactericidal activity against ampicillin/tetracycline/gentamicin-resistant Escherichia coli 451 by agar plating method; format: functional
Escherichia coli [11] = assay: Antibacterial activity against ciprofloxacin-resistant Escherichia coli 72 assessed as growth inhibition after 18 to 24 hrs by broth microdilution method; format: functional
Escherichia coli [12] = assay: Antibacterial activity against gentamicin/kanamycin/tetracycline/nalidixic acid-resistant Escherichia coli 360 assessed as growth inhibition after 18 to 24 hrs by broth microdilution method; format: functional
Escherichia coli [13] = assay: Bactericidal activity against chloramphenicol/ampicillin/kanamycin/trimethoprim/ciprofloxacin/nalidixic acid-resistant Escherichia coli 151 by agar plating method; format: functional
Escherichia coli [14] = assay: Antibacterial activity against cefazolinl/ampicillin/piperacillin/cefuroxime/cefepime/cefotaxime/tetracycline/ciprofloxacin-resistant Escherichia coli NG3 isolated from water source assessed as growth inhibition after 18 to 24 hrs by broth microdilution method
Escherichia coli [15] = assay: Bactericidal activity against cefazolinl/ampicillin/piperacillin/cefuroxime/cefepime/cefotaxime/tetracycline/ciprofloxacin-resistant Escherichia coli NG3 isolated from water source by agar plating method
Escherichia coli [16] = assay: Bactericidal activity against chloramphenicol/ampicillin/kanamycin/trimethoprim/ciprofloxacin/nalidixic acid-resistant Escherichia coli 132 by agar plating method; format: functional
Escherichia coli [17] = assay: Antibacterial activity against ampicillin/tetracycline/piperacillin-resistant Escherichia coli WB31 isolated from water source assessed as growth inhibition after 18 to 24 hrs by broth microdilution method
Escherichia coli [18] = assay: Antibacterial activity against ampicillin/trimethoprim/nalidixic acid-resistant Escherichia coli 118 assessed as growth inhibition after 18 to 24 hrs by broth microdilution method; format: functional
Escherichia coli [19] = assay: Antibacterial activity against ampicillin/trimethoprim/cefazolinl/piperacillin/cefuroxime/cefoxitine/cefepime/cefotaxime-resistant Escherichia coli KP21 isolated from water source assessed as growth inhibition after 18 to 24 hrs by broth microdilution method
Escherichia coli [20] = assay: Antibacterial activity against chloramphenicol/ampicillin/kanamycin/trimethoprim/ciprofloxacin/nalidixic acid-resistant Escherichia coli 151 assessed as growth inhibition after 18 to 24 hrs by broth microdilution method; format: functional
Escherichia coli [21] = assay: Bactericidal activity against chloramphenicol/ampicillin/trimethoprim/ciprofloxacin/nalidixic acid-resistant Escherichia coli 59 by agar plating method; format: functional
Escherichia coli [22] = assay: Bactericidal activity against cefazolinl/ampicillin/piperacillin/cefuroxime/cefepime/cefotaxime/tetracycline/trimethoprim-resistant Escherichia coli KK16 isolated from water source by agar plating method
Escherichia coli [23] = assay: Bactericidal activity against ampicillin/trimethoprim/nalidixic acid-resistant Escherichia coli 118 by agar plating method; format: functional
Escherichia coli [24] = assay: Antibacterial activity against ampicillin/tetracycline/gentamicin-resistant Escherichia coli 451 assessed as growth inhibition after 18 to 24 hrs by broth microdilution method; format: functional
Escherichia coli [25] = assay: Antibacterial activity against Escherichia coli ATCC 25922 assessed as growth inhibition after 18 to 24 hrs by broth microdilution method; format: functional
Escherichia coli [26] = assay: Bactericidal activity against chloroamphenicol/ampicillin/kanamycin/trimethoprim/ciprofloxacin/nalidixic acid-resistant Escherichia coli 85 by agar plating method; format: functional
Escherichia coli [27] = assay: Bactericidal activity against ampicillin/chloramphenicol/tetracycline/trimethoprim/ciprofloxacin-resistant Escherichia coli KK45 isolated from water source by agar plating method
Escherichia coli [28] = assay: Bactericidal activity against ampicillin/tetracycline/piperacillin-resistant Escherichia coli WB31 isolated from water source by agar plating method
Escherichia coli [29] = assay: Antibacterial activity against ampicillin/tetracycline-resistant Escherichia coli IP18 isolated from water source assessed as growth inhibition after 18 to 24 hrs by broth microdilution method
Escherichia coli [30] = assay: Bactericidal activity against ciprofloxacin-resistant Escherichia coli 72 by agar plating method; format: functional
Escherichia coli [31] = assay: Antibacterial activity against ampicillin/trimethoprim/piperacillin-resistant Escherichia coli MKNJ isolated from water source assessed as growth inhibition after 18 to 24 hrs by broth microdilution method
Escherichia coli [32] = assay: Antibacterial activity against chloramphenicol/ampicillin/kanamycin/trimethoprim/ciprofloxacin/nalidixic acid-resistant Escherichia coli 132 assessed as growth inhibition after 18 to 24 hrs by broth microdilution method; format: functional
Escherichia coli [33] = assay: Antibacterial activity against ampicillin/chloramphenicol/tetracycline/trimethoprim/ciprofloxacin-resistant Escherichia coli KK45 isolated from water source assessed as growth inhibition after 18 to 24 hrs by broth microdilution method
Escherichia coli [34] = assay: Bactericidal activity against ampicillin/ciprofloxacin/gentamicin/tetracycline-resistant Escherichia coli 555 by agar plating method; format: functional
Escherichia coli [35] = assay: Bactericidal activity against ampicillin/kanamycin/trimethoprim/tetracyclin/ciprofloxacin/nalidixic acid-resistant Escherichia coli 81 by agar plating method; format: functional

CCOc1ccc(-c2nc3ccc(-c4nc5ccc(N6CCN(CCN(C)C)CC6)cc5[nH]4)cc3[nH]2)cc1
MIC50 (Escherichia coli [1]): 32 µg/mL (≈ 62.8 µM)
MIC90 (Escherichia coli [1]): 60.6 µg/mL (≈ 119 µM)
MIC50 (Escherichia coli [2]): 32 µg/mL (≈ 62.8 µM)
MIC90 (Escherichia coli [2]): 60.4 µg/mL (≈ 119 µM)
MIC50 (Escherichia coli [3]): 16 µg/mL (≈ 31.4 µM)
MIC90 (Escherichia coli [3]): 27.6 µg/mL (≈ 54.2 µM)
MIC50 (Escherichia coli [4]): 32 µg/mL (≈ 62.8 µM)
MIC90 (Escherichia coli [4]): 60.2 µg/mL (≈ 118 µM)
MBC (Escherichia coli [5]): 2 µg/mL (≈ 3.92 µM)
MBC (Escherichia coli [6]): 32 µg/mL (≈ 62.8 µM)
MBC (Escherichia coli [7]): 16 µg/mL (≈ 31.4 µM)
MIC50 (Escherichia coli [8]): 16 µg/mL (≈ 31.4 µM)
MIC90 (Escherichia coli [8]): 28.8 µg/mL (≈ 56.5 µM)
MIC50 (Escherichia coli [9]): 32 µg/mL (≈ 62.8 µM)
MIC90 (Escherichia coli [9]): 60.6 µg/mL (≈ 119 µM)
MBC (Escherichia coli [10]): 64 µg/mL (≈ 126 µM)
MIC50 (Escherichia coli [11]): 32 µg/mL (≈ 62.8 µM)
MIC90 (Escherichia coli [11]): 57.2 µg/mL (≈ 112 µM)
MIC50 (Escherichia coli [12]): 64 µg/mL (≈ 126 µM)
MIC90 (Escherichia coli [12]): 121 µg/mL (≈ 237 µM)
MBC (Escherichia coli [13]): 64 µg/mL (≈ 126 µM)
MIC50 (Escherichia coli [14]): 8 µg/mL (≈ 15.7 µM)
MIC90 (Escherichia coli [14]): 15 µg/mL (≈ 29.4 µM)
MBC (Escherichia coli [15]): 16 µg/mL (≈ 31.4 µM)
MBC (Escherichia coli [16]): 128 µg/mL (≈ 251 µM)
MIC50 (Escherichia coli [17]): 16 µg/mL (≈ 31.4 µM)
MIC90 (Escherichia coli [17]): 29.4 µg/mL (≈ 57.7 µM)
MIC50 (Escherichia coli [18]): 8 µg/mL (≈ 15.7 µM)
MIC90 (Escherichia coli [18]): 15.2 µg/mL (≈ 29.8 µM)
MIC50 (Escherichia coli [19]): 32 µg/mL (≈ 62.8 µM)
MIC90 (Escherichia coli [19]): 61.4 µg/mL (≈ 120 µM)
MIC50 (Escherichia coli [20]): 32 µg/mL (≈ 62.8 µM)
MIC90 (Escherichia coli [20]): 61.6 µg/mL (≈ 121 µM)
MBC (Escherichia coli [21]): 32 µg/mL (≈ 62.8 µM)
MBC (Escherichia coli [22]): 32 µg/mL (≈ 62.8 µM)
MBC (Escherichia coli [23]): 16 µg/mL (≈ 31.4 µM)
MIC50 (Escherichia coli [24]): 32 µg/mL (≈ 62.8 µM)
MIC90 (Escherichia coli [24]): 55.3 µg/mL (≈ 109 µM)
MIC50 (Escherichia coli [25]): 8 µg/mL (≈ 15.7 µM)
MIC90 (Escherichia coli [25]): 26.6 µg/mL (≈ 52.2 µM)
MBC (Escherichia coli [26]): 32 µg/mL (≈ 62.8 µM)
MBC (Escherichia coli [27]): 32 µg/mL (≈ 62.8 µM)
MBC (Escherichia coli [28]): 32 µg/mL (≈ 62.8 µM)
MIC50 (Escherichia coli [29]): 16 µg/mL (≈ 31.4 µM)
MIC90 (Escherichia coli [29]): 30.6 µg/mL (≈ 60 µM)
MBC (Escherichia coli [30]): 64 µg/mL (≈ 126 µM)
MIC50 (Escherichia coli [31]): 16 µg/mL (≈ 31.4 µM)
MIC90 (Escherichia coli [31]): 30.6 µg/mL (≈ 60 µM)
MIC50 (Escherichia coli [32]): 64 µg/mL (≈ 126 µM)
MIC90 (Escherichia coli [32]): 123 µg/mL (≈ 241 µM)
MIC50 (Escherichia coli [33]): 16 µg/mL (≈ 31.4 µM)
MIC90 (Escherichia coli [33]): 29.4 µg/mL (≈ 57.7 µM)
MBC (Escherichia coli [34]): 64 µg/mL (≈ 126 µM)
MBC (Escherichia coli [35]): 64 µg/mL (≈ 126 µM)

CCCN1CCN(c2ccc3nc(-c4ccc5nc(-c6ccc(OCC)cc6)[nH]c5c4)[nH]c3c2)CC1
MIC50 (Escherichia coli [1]): 0.5 µg/mL (≈ 1.04 µM)
MIC90 (Escherichia coli [1]): 1.6 µg/mL (≈ 3.33 µM)
MIC50 (Escherichia coli [2]): 4 µg/mL (≈ 8.32 µM)
MIC90 (Escherichia coli [2]): 6.8 µg/mL (≈ 14.1 µM)
MIC50 (Escherichia coli [3]): 0.5 µg/mL (≈ 1.04 µM)
MIC90 (Escherichia coli [3]): 1.8 µg/mL (≈ 3.75 µM)
MIC50 (Escherichia coli [4]): 1 µg/mL (≈ 2.08 µM)
MIC90 (Escherichia coli [4]): 1.6 µg/mL (≈ 3.33 µM)
MBC (Escherichia coli [5]): 0.2 µg/mL (≈ 0.416 µM)
MBC (Escherichia coli [6]): 4 µg/mL (≈ 8.32 µM)
MBC (Escherichia coli [7]): 0.4 µg/mL (≈ 0.832 µM)
MIC50 (Escherichia coli [8]): 2 µg/mL (≈ 4.16 µM)
MIC90 (Escherichia coli [8]): 3.4 µg/mL (≈ 7.07 µM)
MIC50 (Escherichia coli [9]): 0.5 µg/mL (≈ 1.04 µM)
MIC90 (Escherichia coli [9]): 1.7 µg/mL (≈ 3.54 µM)
MBC (Escherichia coli [10]): 2 µg/mL (≈ 4.16 µM)
MIC50 (Escherichia coli [11]): 2 µg/mL (≈ 4.16 µM)
MIC90 (Escherichia coli [11]): 3.1 µg/mL (≈ 6.45 µM)
MIC50 (Escherichia coli [12]): 1 µg/mL (≈ 2.08 µM)
MIC90 (Escherichia coli [12]): 1.6 µg/mL (≈ 3.33 µM)
MBC (Escherichia coli [13]): 2 µg/mL (≈ 4.16 µM)
MIC50 (Escherichia coli [14]): 0.5 µg/mL (≈ 1.04 µM)
MIC90 (Escherichia coli [14]): 1.7 µg/mL (≈ 3.54 µM)
MBC (Escherichia coli [15]): 2 µg/mL (≈ 4.16 µM)
MBC (Escherichia coli [16]): 4 µg/mL (≈ 8.32 µM)
MIC50 (Escherichia coli [17]): 0.5 µg/mL (≈ 1.04 µM)
MIC90 (Escherichia coli [17]): 1.7 µg/mL (≈ 3.54 µM)
MIC50 (Escherichia coli [18]): 1 µg/mL (≈ 2.08 µM)
MIC90 (Escherichia coli [18]): 1.7 µg/mL (≈ 3.54 µM)
MIC50 (Escherichia coli [19]): 0.5 µg/mL (≈ 1.04 µM)
MIC90 (Escherichia coli [19]): 3.8 µg/mL (≈ 7.91 µM)
MIC50 (Escherichia coli [20]): 1 µg/mL (≈ 2.08 µM)
MIC90 (Escherichia coli [20]): 1.7 µg/mL (≈ 3.54 µM)
MBC (Escherichia coli [21]): 4 µg/mL (≈ 8.32 µM)
MBC (Escherichia coli [22]): 2 µg/mL (≈ 4.16 µM)
MBC (Escherichia coli [23]): 2 µg/mL (≈ 4.16 µM)
MIC50 (Escherichia coli [24]): 1 µg/mL (≈ 2.08 µM)
MIC90 (Escherichia coli [24]): 1.7 µg/mL (≈ 3.54 µM)
MIC50 (Escherichia coli [25]): 0.2 µg/mL (≈ 0.416 µM)
MIC90 (Escherichia coli [25]): 3.3 µg/mL (≈ 6.87 µM)
MBC (Escherichia coli [26]): 2 µg/mL (≈ 4.16 µM)
MBC (Escherichia coli [27]): 2 µg/mL (≈ 4.16 µM)
MBC (Escherichia coli [28]): 2 µg/mL (≈ 4.16 µM)
MIC50 (Escherichia coli [29]): 1 µg/mL (≈ 2.08 µM)
MIC90 (Escherichia coli [29]): 3.4 µg/mL (≈ 7.07 µM)
MBC (Escherichia coli [30]): 4 µg/mL (≈ 8.32 µM)
MIC50 (Escherichia coli [31]): 1 µg/mL (≈ 2.08 µM)
MIC90 (Escherichia coli [31]): 3.5 µg/mL (≈ 7.28 µM)
MIC50 (Escherichia coli [32]): 2 µg/mL (≈ 4.16 µM)
MIC90 (Escherichia coli [32]): 3.5 µg/mL (≈ 7.28 µM)
MIC50 (Escherichia coli [33]): 0.5 µg/mL (≈ 1.04 µM)
MIC90 (Escherichia coli [33]): 1.7 µg/mL (≈ 3.54 µM)
MBC (Escherichia coli [34]): 8 µg/mL (≈ 16.6 µM)
MBC (Escherichia coli [35]): 2 µg/mL (≈ 4.16 µM)
